System: leukemia cell lines (K562, BV173, Ba/F3 p190, Ba/F3 p210, MYL-R, K562-IMR, and KBM5-STI)
Test: Comparison of cytotoxic activity across leukemia cell lines (MTT assay)
Format: cell-based
Settings: Example 3
Method: The proliferation inhibitory action in leukemia cell lines was evaluated using a modified dimethyl-thiazole-diphenyl-tetrazolium (MTT) assay as follows.
The hepatocyte line and leukemia cell lines (K562, BV173, Ba/F3 p190, Ba/F3 p210, MYL-R, K562-IMR, and KBM5-STI) were used in this example. The FA-HP-β-CyD synthesized in Example 1 was used.
The cell viability was evaluated using the trypan blue dye exclusion method. Cell proliferation was evaluated using a Cell Counting Kit-8 (Dojindo, Japan), which is an MTT assay. 2×10^4 of each cell was seeded with 100 μL RPMI1640 medium (Sigma-Aldrich, USA) per well to a flatbottom 96-well plate (Greiner Labortechnik, Hamburg, Germany), and incubation for 72 hours was carried out with exposure to HP-β-CyD and FA-HP-β-CyD at different concentrations (0 mM (control: CT), 0.05 mM, 0.1 mM, 0.25 mM, 0.5 mM, and 1 mM).
According to Table 1, IC50 for FA-HP-β-CyD in the leukemia cell lines (K562, BV173, Ba/F3 p190, Ba/F3 p210, MYL-R, K562-IMR, and KBM5-STI) is shown to be about ⅕ to about 1/20 of that for HP-β-CyD. […] FA-HP-β-CyD is thus shown to have a stronger cytotoxic activity than HP-β-CyD.

folic acid-appended hydroxypropyl-β-cyclodextrin [FA-HP-β-CyD]
amount giving the equivalent anti-leukemia action relative to un-appended HP-β-CyD: approximately one-tenth the amount
